What all share (experiment): combination Emax (second highest fraction inhibited in the dose matrix, 72 h); higher = more inhibition; extreme values may be limits of the assay
Assay [1] deals with OCUB-M (Breast Carcinoma). An outline of the steps: (§1)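 Cell lines in DMEM/F12 or RPMI with 10% FBS were plated in 1536-well plates, held 24 hours at 37°C, 5% CO2, then given two-drug dose matrices for 72 hours (DMSO typically 0.2%). Viability was read by CellTiter-Glo 2.0 luminescence and scaled as inhibition from 0 (vehicle wells) to 1 (blank wells). Combination Emax is the second-highest inhibition in the matrix; Bliss excess is observed combination effect minus expected EA + EB − EA·EB, EA and EB being single-agent effects.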

Assay [2] has as its system NCI-H2405 (Lung Adenocarcinoma). In a few lines: as §1
Assay [3] has as its system H-EMC-SS (Chondrosarcoma). In a few lines: as §1
The test system of assay [4] is NCI-H2347 (Lung Adenocarcinoma). An outline of the steps:
as §1

Assay [5] concerns NCI-H1573 (Lung Adenocarcinoma). An outline of the steps: as §1
The test system of assay [6] is DG-75 (Burkitt's Lymphoma). In a few lines: as §1
Assay [7] relates to EMC-BAC-2 (Non-Small Cell Lung Carcinoma). In a few lines:
as §1

Another assay concerns IMR-5 (Neuroblastoma). In a few lines: as §1
In assay [8] the test system is NCI-H513 (Other Solid Carcinomas). An outline of the steps: as §1
The subject of assay [9] is HuP-T3 (Pancreatic Carcinoma). In a few lines:
as §1

The next assay concerns U-87-MG (Glioblastoma). In a few lines:
as §1

The subject of assay [10] is HSC-2 (Oral Cavity Carcinoma). In a few lines: as §1
The test system of a further assay is BT-20 (Breast Carcinoma). In a few lines: as §1
Assay [11] concerns KLE (Endometrial Carcinoma). In a few lines:
as §1

In assay [12] the test system is SCC-3 (B-Cell Non-Hodgkin's Lymphoma). An outline of the steps: as §1
The subject of assay [13] is PFSK-1 (Other Solid Carcinomas). An outline of the steps: as §1
The test system of assay [14] is KU-19-19 (Bladder Carcinoma). An outline of the steps:
as §1

Assay [15] concerns KYSE-50 (Esophageal Squamous Cell Carcinoma). In a few lines:
as §1

A further assay relates to NB7 (Neuroblastoma). In a few lines: as §1
Assay [16] deals with KP-2 (Pancreatic Carcinoma). In a few lines: as §1

Regarding `Cc1c2c(nn1C)CSCc1cc(n(C)n1)CSc1cc(c3ccccc3c1)OCCCc1c(C(=O)O)n(C)c3c-2c(Cl)ccc13` [AZD5991] + Cn1cnc2c(F)c(Nc3ccc(Br)cc3Cl)c(C(=O)NOCCO)cc21 [Selumetinib] (first compound max 1 µM, 7x7, partner max 3 µM), the “combination Emax” value in [1] worked out at 0.979; in assay [2] it was 0.483; in [3], 0.563; in [4], 0.41; in [5], 0.586; in assay [6] it was 0.112. For the same compound, the “combination Emax” value in assay [7] was found to be 0.834; in the assay with IMR-5 (Neuroblastoma), 0.983; in [8], 0.473; in assay [9] it was 0.462; in the assay with U-87-MG (Glioblastoma), 0.372; in [10] it was 0.907. Also, the “combination Emax” value was 0.763 in the assay on BT-20 (Breast Carcinoma); 0.287 in assay [11]; 0.639 in assay [12]; 1 in assay [13]; 0.885 in assay [14]; 0.292 in [15]. The “combination Emax” value in the assay with NB7 (Neuroblastoma) worked out at 0.536; in assay [16] it was 0.749.

For the compound `Cc1c2c(nn1C)CSCc1cc(n(C)n1)CSc1cc(c3ccccc3c1)OCCCc1c(C(=O)O)n(C)c3c-2c(Cl)ccc13` [AZD5991] + C[C@@H](Nc1cc(F)cc(F)c1)c1cc(C(=O)N(C)C)cc2c(=O)cc(N3CCOCC3)oc12 [AZD8186] (first compound max 1 µM, 7x7, partner max 3 µM), the “combination Emax” value amounted to 0.986 in assay [1]; 0.165 in [2]; 0.476 in assay [3]; 0.279 in [4]; 0.318 in assay [5]; 0.219 in assay [6]. The “combination Emax” value turned out to be 0.632 in assay [7]; 0.955 in the assay with IMR-5 (Neuroblastoma); 0.339 in assay [8]; 0.288 in [9]; 0.45 in the assay on U-87-MG (Glioblastoma); 0.963 in assay [10]. The “combination Emax” value in the assay on BT-20 (Breast Carcinoma) was determined as 0.614; in assay [11], 0.493; in assay [12], 0.409; in assay [13], 0.998; in assay [14], 0.212; in assay [15], 0.317. The “combination Emax” value in the assay with NB7 (Neuroblastoma) was 0.686; in assay [16] it was 0.254.

As to `NC1(C(=O)N[C@@H](CCO)c2ccc(Cl)cc2)CCN(c2ncnc3[nH]ccc23)CC1` [Capivasertib] + CCN(CCO)CCCOc1ccc2c(Nc3cc(CC(=O)Nc4cccc(F)c4)[nH]n3)ncnc2c1 [AZD2811] (first compound max 10 µM, 7x7, partner max 1 µM), the “combination Emax” value is 1 in [1]; 0.329 in assay [2]; 0.488 in assay [3]; 0.231 in [4]; 0.323 in assay [5]; 0.606 in assay [6]. For the same compound, the “combination Emax” value in assay [7] worked out at 0.564; with IMR-5 (Neuroblastoma) it was 1; in assay [8], 0.19; in assay [9] it was 0.249; in the assay on U-87-MG (Glioblastoma) it was 0.648; in assay [10] it was 0.707. For the same compound, the “combination Emax” value came out at 0.765 in the assay with BT-20 (Breast Carcinoma); 0.332 in [11]; 0.309 in [12]; 0.532 in [13]; 0.515 in [14]; 0.388 in [15]. The “combination Emax” value worked out at 0.613 in the assay on NB7 (Neuroblastoma) and 0.132 in assay [16].

Take `COc1nnc2ccc(N3CCC(c4ccc(OCCN5CCN(C)C(=O)[C@H]5C)cc4)CC3)nn12` [AZD5153] + Cn1cnc2c(F)c(Nc3ccc(Br)cc3Cl)c(C(=O)NOCCO)cc21 [Selumetinib] (first compound max 1 µM, 7x7, partner max 10 µM): the “combination Emax” value in [1] is 0.534; in assay [2], 0.521; in [3], 0.368; in [4], 0.6; in assay [5], 0.755; in assay [6], 0.862. For the same compound, the “combination Emax” value in assay [7] came to 0.738; in the assay on IMR-5 (Neuroblastoma), 0.906; in [8], 0.499; in [9] it was 0.692; in the assay on U-87-MG (Glioblastoma), 0.698; in assay [10], 0.737. Besides, the “combination Emax” value in the assay on BT-20 (Breast Carcinoma) was determined as 0.302; in [11], 0.631; in assay [12], 0.93; in assay [13] it was 0.664; in assay [14], 1; in [15] it was 0.697. The “combination Emax” value in the assay with NB7 (Neuroblastoma) was 0.45; in [16], 0.54.

As for `NC1(C(=O)N[C@@H](CCO)c2ccc(Cl)cc2)CCN(c2ncnc3[nH]ccc23)CC1` [Capivasertib] + C[C@@H]1COCCN1C2=NC(=NC(=C2)C3(CC3)[S@](=N)(=O)C)C4=C5C=CNC5=NC=C4 [AZD6738] (first compound max 10 µM, 7x7, partner max 10 µM), the “combination Emax” value amounted to 1 in [1]; 0.477 in [2]; 0.526 in assay [3]; 0.327 in assay [4]; 0.618 in [5]; 0.845 in assay [6]. Further, the “combination Emax” value stood at 0.728 in assay [7]; 0.99 with IMR-5 (Neuroblastoma); 0.386 in assay [8]; 0.645 in assay [9]; 0.714 in the assay on U-87-MG (Glioblastoma); 0.701 in assay [10]. In addition, the “combination Emax” value in the assay on BT-20 (Breast Carcinoma) turned out to be 0.771; in assay [11], 0.59; in assay [12], 0.938; in [13], 0.699; in assay [14], 0.69; in assay [15] it was 0.676. Further, the “combination Emax” value came out at 0.635 in the assay with NB7 (Neuroblastoma) and 0.17 in [16].

Regarding `COc1nnc2ccc(N3CCC(c4ccc(OCCN5CCN(C)C(=O)[C@H]5C)cc4)CC3)nn12` [AZD5153] + C=CCn1c(=O)c2cnc(Nc3ccc(N4CCN(C)CC4)cc3)nc2n1-c1cccc(C(C)(C)O)n1 [AZD1775] (first compound max 1 µM, partner max 1 µM), the “combination Emax” value in assay [1] was 0.572; in assay [2], 0.429; in assay [3], 0.23; in assay [4] it was 0.413; in [5] it was 0.637; in [6], 0.905. In addition, the “combination Emax” value turned out to be 0.735 in [7]; 0.973 with IMR-5 (Neuroblastoma); 0.437 in [8]; 0.584 in assay [9]; 0.53 in the assay with U-87-MG (Glioblastoma); 0.679 in assay [10]. For the same compound, the “combination Emax” value is 0.471 in the assay with BT-20 (Breast Carcinoma); 0.679 in assay [11]; 0.9 in [12]; 0.744 in assay [13]; 0.731 in assay [14]; 0.798 in assay [15]. In addition, the “combination Emax” value with NB7 (Neuroblastoma) came out at 0.587; in assay [16], 0.437.
